These results are taken from patent US9493472B2, “Substituted benzoxazoles” (BAYER PHARMA AKTIENGESELLSCHAFT, priority 2013, dated 2016).

Test [1] concerns the target T1, thrombin (Homo sapiens (Human), UniProt P00734). In words: Thrombin-inhibitory activity in plasma samples (ecarin-activated). The format is biochemical. Particulars: citrate plasma, prothrombinase activated by ecarin, fluorogenic thrombin substrate; in some cases means; read-out: IC50 [nM] thrombin inhibition in plasma samples. As for the experimental part: To determine the inhibition of thrombin in plasma samples, plasma […] is activated by ecarin. Thrombin activity and/or its inhibition by potential inhibitors is/are then measured fluorenscently by addition of a substrate.
The substances to be tested are dissolved in various concentrations in dimethyl sulphoxide and diluted with water. In white 96-well flat-bottomed plates, 20 μl of substance dilution are mixed with 20 μl of ecarin solution (ecarin reagent, from Sigma E-0504, final concentration 20 mU per reaction) in Ca buffer (200 mM Hepes+560 mM sodium chloride+10 mM calcium chloride+0.4% PEG) or with 20 μl of Ca buffer (as unstimulated control). Furthermore, 20 μl of fluorogenic thrombin substrate (from Bachem I-1120, final concentration 50 μmol/l) and 20 μl of citrate plasma (from Octapharma) are added, and the mixture is homogenized well. The plate is measured in a SpectraFluorplus Reader using a 360 nm excitation filter and a 465 nm emission filter every minute over 20 minutes.

Test [2] deals with T1, thrombin. In words: Measurement of the thrombin inhibition in buffer. The format is biochemical. The settings on record: human thrombin 0.06 nmol/l, Tris buffer pH 7.4, 22° C.; substrate Boc-Asp(OBzl)-Pro-Arg-AMC; in some cases means. The procedure:
To determine the thrombin inhibition of the substances listed above, a biochemical test system is constructed in which the conversion of a thrombin substrate is used for determining the enzymatic activity of human thrombin. Here, thrombin cleaves aminomethylcoumarin, which is measured fluorescently, from the peptic substrate. The determinations are carried out in microtitre plates.
Substances to be tested are dissolved in various concentrations in dimethyl sulphoxide and incubated for 15 min with human thrombin (0.06 nmol/l dissolved in 50 mmol/l of Tris buffer [C,C,C-tris(hydroxymethyl)aminomethane], 100 mmol/l of sodium chloride, 0.1% BSA [bovine serum albumin], pH 7.4) at 22° C. The substrate (5 μmol/l Boc-Asp(OBzl)-Pro-Arg-AMC from Bachem) is then added. After 30 min of incubation, the sample is excited at a wavelength of 360 nm and the emission is measured at 460 nm. The measured emissions of the test batches with test substance are compared to the control batches without test substance (only dimethyl sulphoxide instead of test substance in dimethyl sulphoxide) and the IC50 values are calculated from the concentration/activity relationships.

Test [3] deals with plasma (prothrombin time). In words: Anticoagulatory activity: prothrombin time (PT) in plasma. The settings on record: 37° C., 3 minutes incubation, plasma species not given, in some cases means, read-out: IC50 [μM] (concentration of test substance which effects a doubling of the prothrombin time). The procedure: The anticoagulatory activity of the test substances is determined in vitro in human plasma, rabbit plasma and rat plasma. To this end, blood is drawn off in a mixing ratio of sodium citrate/blood of 1:9 using a 0.11 molar sodium citrate solution as receiver. Immediately after the blood has been drawn off, it is mixed thoroughly and centrifuged at about 4000 g for 15 minutes. The supernatant is pipetted off.
The prothrombin time (PT, synonyms: thromboplastin time, quick test) is determined in the presence of varying concentrations of test substance or the corresponding solvent using a commercial test kit (Neoplastin® from Boehringer Mannheim or Hemoliance® RecombiPlastin from Instrumentation Laboratory). The test compounds are incubated with the plasma at 37° C. for 3 minutes. Coagulation is then started by addition of thromboplastin, and the time when coagulation occurs is determined. The concentration of test substance which effects a doubling of the prothrombin time is determined Representative activity data from this test are given in Table 3 below (in some cases as means of individual determinations): […]

On to `COc1cc(C(=O)N2CCC(O)C(C)C2)cc2nc(NC(CF)c3cccc(Cl)c3)oc12` (single isomer, unassigned) [Example 2, (2-{[1-(3-Chlorophenyl)-2-fluoroethyl]amino}-7-methoxy-1,3-benzoxazol-5-yl)(4-hydroxy-3-methylpiperidin-1-yl)methanone], for which the IC50 at thrombin [1] and on thrombin [2] was 31 nM in each case.
In the case of `COc1cc(C(=O)N2CCC(O)C(C)C2)cc2nc(NC(CF)c3cccc(Cl)c3)oc12` (single isomer, unassigned) [Example 3, (2-{[1-(3-Chlorophenyl)-2-fluoroethyl]amino}-7-methoxy-1,3-benzoxazol-5-yl)(4-hydroxy-3-methylpiperidin-1-yl)methanone], the IC50 at thrombin [1] is 11.6 nM; in test [3] it was 1.8 µM; against thrombin [2], 2.4 nM.
On to `COc1cc(C(=O)N2CC(C)(C)OC[C@H]2CCO)cc2nc(NC(CF)c3cccc(Cl)c3)oc12` (stereo partly drawn) [Example 25, (2-{[1-(3-Chlorophenyl)-2-fluoroethyl]amino}-7-methoxy-0,2-benzoxazol-5-yl)[(5R)-5-(2-hydroxyethyl)-2,2-dimethylmorpholin-4-yl]methanone], for which the IC50 worked out at 4.7 nM at thrombin [1], 1.1 µM in test [3] and 4.3 nM against thrombin [2].
Consider `COc1cc(C(=O)N2CC(C)(C)OCC2CO)cc2nc(NC(CF)c3cccc(Cl)c3)oc12` (stereo not drawn) [Example 4, (2-{[1-(3-Chlorophenyl)-2-fluoroethyl]amino}-7-methoxy-1,3-benzoxazol-5-yl)[5-(hydroxymethyl)-2,2-dimethylmorpholin-4-yl]methanone], for which the IC50 at thrombin [1] turned out to be 9.8 nM; against thrombin [2], 1.7 nM.
In the case of `CCO[C@@H]1CC(CCO)N(C(=O)c2cc(OC)c3oc(NC(CF)c4cccc(Cl)c4)nc3c2)C1` (stereo partly drawn) [Example 29, (2-{[1-(3-Chlorophenyl)-2-fluoroethyl]amino}-7-methoxy-1,3-benzoxazol-5-yl)[(4R)-4-ethoxy-2-(2-hydroxyethyl)pyrrolidin-1-yl]methanone], the results for the IC50 on thrombin [1] and on thrombin [2] were 15 nM and 1.1 nM, respectively.
On to `COc1cc(C(=O)N2CC3CCN3C(=O)C2C)cc2nc(NC(CF)c3cccc(Cl)c3)oc12` (single isomer, unassigned) [Example 23, 4-[(2-{[1-(3-Chlorophenyl)-2-fluoroethyl]amino}-7-methoxy-1,3-benzoxazol-5-yl)carbonyl]-3-methyl-1,4-diazabicyclo[4.2.0]octan-2-one], for which the IC50 was 4.7 nM on thrombin [1] and 1.7 nM on thrombin [2].
For `COc1cc(C(=O)N2CC(C)(CCO)OC[C@H]2C)cc2nc(NC(CF)c3cccc(Cl)c3)oc12` (stereo partly drawn) [Example 9, (2-{[1-(3-Chlorophenyl)-2-fluoroethyl]amino}-7-methoxy-1,3-benzoxazol-5-yl)[(5R)-2-(2-hydroxyethyl)-2,5-dimethylmorpholin-4-yl]methanone] the same measures were 14.3 nM and 0.2 nM.
As to `COc1cc(C(=O)N2CC3(CC3)NC(=O)C2C)cc2nc(NC(CF)c3cccc(Cl)c3)oc12` (single isomer, unassigned) [Example 34, 7-[(2-{[1-(3-Chlorophenyl)-2-fluoroethyl]amino}-7-methoxy-1,3-benzoxazol-5-yl)carbonyl]-6-methyl-4,7-diazaspiro[2.5]octan-5-one], the IC50 at thrombin [1] amounted to 170 nM; at thrombin [2] it was 20 nM.
For the compound `COc1cc(C(=O)N2CC(C)(C)OCC2CO)cc2nc(NC(CF)c3cccc(Cl)c3)oc12` (single isomer, unassigned) [Example 6, (2-{[1-(3-Chlorophenyl)-2-fluoroethyl]amino}-7-methoxy-1,3-benzoxazol-5-yl)[5-(hydroxymethyl)-2,2-dimethylmorpholin-4-yl]methanone], the IC50 at thrombin [1] stood at 16.5 nM; against thrombin [2], 9.7 nM.
With `COc1cc(C(=O)N2CCC(O)C(C)C2)cc2nc(NC(CF)c3cccc(Cl)c3)oc12` (stereo not drawn) [Example 1, (2-{[1-(3-Chlorophenyl)-2-fluoroethyl]amino}-7-methoxy-1,3-benzoxazol-5-yl)(4-hydroxy-3-methylpiperidin-1-yl)methanone], the values for the IC50 on thrombin [1] and at thrombin [2] were 21 nM and 3.2 nM, respectively.
Consider `COc1cc(C(=O)N2CC(C)OC[C@@H]2CC(=O)O)cc2nc(NC(CF)c3cccc(Cl)c3)oc12` (single isomer, unassigned) [Example 24], for which the IC50 at thrombin [1] was found to be 4.5 nM.
For the compound `COc1cc(C(=O)N2CC(C)(C)OCC2CO)cc2nc(NC(CF)c3cccc(Cl)c3)oc12` (single isomer, unassigned) [Example 5, (2-{[1-(3-Chlorophenyl)-2-fluoroethyl]amino}-7-methoxy-1,3-benzoxazol-5-yl)[5-(hydroxymethyl)-2,2-dimethylmorpholin-4-yl]methanone], the IC50 at thrombin [1] came out at 4.8 nM; against thrombin [2] it was 1.1 nM.
With `COc1cc(C(=O)N2CC(C)OC[C@]23C[C@H](O)C3)cc2nc(NC(CF)c3cccc(Cl)c3)oc12` (stereo partly drawn) [Example 22, (2-{[1-(3-Chlorophenyl)-2-fluoroethyl]amino}-7-methoxy-1,3-benzoxazol-5-yl)(cis-2-hydroxy-7-methyl-8-oxa-5-azaspiro[3.5]non-5-yl)methanone], the values for the IC50 on thrombin [1] and at thrombin [2] were 3.8 nM and 1.6 nM, respectively.
For `COc1cc(C(=O)N2CC(C)(CCO)OC[C@H]2C)cc2nc(NC(CF)c3cccc(Cl)c3)oc12` (single isomer, unassigned) [Example 10] the same measures were 1400 nM and 130 nM.
For `CCO[C@@H]1CC(CO)N(C(=O)c2cc(OC)c3oc(NC(CF)c4cccc(Cl)c4)nc3c2)C1` (single isomer, unassigned) [Example 28] the same measures were 56 nM and 2.3 nM.
Turning to `CCO[C@@H]1CC(CCO)N(C(=O)c2cc(OC)c3oc(NC(CF)c4cccc(Cl)c4)nc3c2)C1` (single isomer, unassigned) [Example 30], the IC50 at thrombin [1] stood at 46 nM; on thrombin [2], 5.3 nM.
Turning to `COc1cc(C(=O)N2CC3(CC3)NC(=O)C2C)cc2nc(NC(CF)c3cccc(Cl)c3)oc12` (stereo not drawn) [Example 32, 7-[(2-{[1-(3-Chlorophenyl)-2-fluoroethyl]amino}-7-methoxy-1,3-benzoxazol-5-yl)carbonyl]-6-methyl-4,7-diazaspiro[2.5]octan-5-one], the IC50 at thrombin [1] was 7.3 nM; at thrombin [2], 0.7 nM.
With `COc1cc(C(=O)N2CC(C)OC[C@H]2C)cc2nc(NC(CF)c3cccc(Cl)c3)oc12` (single isomer, unassigned) [Example 8], the IC50 was 25.3 nM on thrombin [1] and 11 nM on thrombin [2].
For `COc1cc(C(=O)N2CC(C)OCC2CCO)cc2nc(NC(CF)c3cccc(Cl)c3)oc12` (stereo not drawn) [Example 13, (2-{[1-(3-Chlorophenyl)-2-fluoroethyl]amino}-7-methoxy-1,3-benzoxazol-5-yl)[5-(2-hydroxyethyl)-2-methylmorpholin-4-yl]methanone], the IC50 in test [3] came out at 1.4 µM.
In the case of `CCO[C@@H]1CC(CO)N(C(=O)c2cc(OC)c3oc(NC(CF)c4cccc(Cl)c4)nc3c2)C1` (stereo partly drawn) [Example 26, (2-{[1-(3-Chlorophenyl)-2-fluoroethyl]amino}-7-methoxy-1,3-benzoxazol-5-yl)[(4R)-4-ethoxy-2-(hydroxymethyl)pyrrolidin-1-yl]methanone], the IC50 was found to be 2 nM on thrombin [1] and 0.19 nM on thrombin [2].
For `CCO[C@@H]1CC(CCO)N(C(=O)c2cc(OC)c3oc(NC(CF)c4cccc(Cl)c4)nc3c2)C1` (single isomer, unassigned) [Example 31] the same measures were 5 nM and 0.54 nM.
